SMILES strings stand for the structures. Counter-ions that a name gives are not always drawn. Some results are limits rather than exact numbers.

The assay concerns the target T1, ENPP1 (Homo sapiens, UniProt P22413).
T1 sequence (P22413 1-925): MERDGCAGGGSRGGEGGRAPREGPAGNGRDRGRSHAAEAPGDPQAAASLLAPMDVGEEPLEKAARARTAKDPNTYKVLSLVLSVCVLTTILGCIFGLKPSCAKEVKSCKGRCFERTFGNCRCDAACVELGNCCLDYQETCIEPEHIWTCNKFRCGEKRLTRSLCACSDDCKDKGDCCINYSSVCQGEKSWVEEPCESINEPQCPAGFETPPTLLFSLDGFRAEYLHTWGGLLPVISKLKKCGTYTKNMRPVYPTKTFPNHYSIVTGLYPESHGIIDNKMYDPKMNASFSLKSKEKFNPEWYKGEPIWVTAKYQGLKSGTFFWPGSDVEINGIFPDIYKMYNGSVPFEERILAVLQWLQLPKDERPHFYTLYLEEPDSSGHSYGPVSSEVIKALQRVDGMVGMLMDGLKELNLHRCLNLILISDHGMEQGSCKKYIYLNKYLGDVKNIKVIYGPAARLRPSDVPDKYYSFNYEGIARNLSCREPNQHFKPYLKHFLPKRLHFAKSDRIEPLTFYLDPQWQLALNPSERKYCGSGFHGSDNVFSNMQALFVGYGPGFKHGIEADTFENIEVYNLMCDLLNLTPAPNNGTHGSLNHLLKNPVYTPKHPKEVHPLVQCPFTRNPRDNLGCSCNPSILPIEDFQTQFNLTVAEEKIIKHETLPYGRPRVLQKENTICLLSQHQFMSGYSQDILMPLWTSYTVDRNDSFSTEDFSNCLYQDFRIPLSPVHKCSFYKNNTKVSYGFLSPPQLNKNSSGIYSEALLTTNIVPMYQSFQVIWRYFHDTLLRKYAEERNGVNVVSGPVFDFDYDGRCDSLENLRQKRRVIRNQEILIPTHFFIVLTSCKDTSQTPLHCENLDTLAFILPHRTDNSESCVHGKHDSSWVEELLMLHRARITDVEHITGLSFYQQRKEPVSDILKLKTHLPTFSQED
In words: Measurement of pNP-TMP hydrolysis by ENPP1. The format is biochemical. Conditions: purified ENPP1, pNP-TMP substrate 500 μM, KM 232 μM; Ki calculated from IC50 by Cheng-Prusoff. The method, then: p-Nitrophenyl thymidine 5′-monophosphate (pNP-TMP) is a synthesized substrate for ENPP1. The ENPP1 enzyme activity assay with pNP-TMP substrate was conducted as follows:
Incubation of ENPP1 with compounds was set at 25° C. for 10 min. […] For each compound dilution, wells with assay buffer (50 mM Tris-HCl, pH8.8, 250 mM NaCl, 0.1 mg/ml BSA, 1% DMSO) only but no ENPP1 were included as controls for subtraction of test compound derived absorbance at 405 nm.
Absorbance at 405 nm was recorded immediately in kinetic mode by PerkinElmer 2300 Enspire multimode plate reader.
For each inhibitor, the specific ENPP1 activity was calculated using the following equation: ENPP1 activity (pmol/min/g)=Adjusted Vmax (OD405 nm/min) X conversion factor (pmol/OD405 nm)/amount of enzyme (g)
Adjusted Vmax=V0×(Km+(S))/(S).
V0=(OD405 nm with ENPP1−OD405 nm ENPP1 blank)/minutes. OD405 nm was plotted, with blank subtracted, against time (minutes), the initial linear rate is V0. […]
The slope is the conversion factor. The percent ENPP1 activity for each sample was calculated using the following equation:
% enzyme activity=sample enzyme activity/MAX Activity×100%.
To determine the IC50 for each compound, compound concentration values and percent enzyme activity values were inserted into GraphPad Prism (GraphPad Prism version 7.0 for Windows, GraphPad Software, La Jolla California USA, www.graphpad.com), and Prism's Transform analysis was used to convert the x-axis values (compound concentration) to logarithms. A sigmoidal variable slope nonlinear regression analysis was performed using the following equation: Y=Bottom+(Top−Bottom)/(1+10^((LogIC50−X)*HillSlope)).
For the molecule `Cn1ncc2nc(C=Cc3ccccc3)nc(NCc3ccc(B(O)O)cc3)c21` (mixture of isomers) [compound 34, 4-[([1-methyl-5-[2-phenylethenyl]pyrazolo[4,3-d]pyrimidin-7-yl]amino)-methyl]phenylboronic acid], the Ki was less than 1000 nM. To `CC(=O)Nc1csc2c(NCc3ccc(B(O)O)cc3)ncnc12` [Cpd. 8, 4-[([7-acetamidothieno[3,2-d]pyrimidin-4-yl]amino)-methyl]phenylboronic acid] belongs less than 100 nM; to `N#Cc1csc2c(NCc3ccc(B(O)O)cc3)ncnc12` [compound 40, 4-[([7-cyanothieno[3,2-d]pyrimidin-4-yl]amino)-methyl]phenylboronic acid], less than 100 nM; to `COC(=O)c1csc2c(NCc3ccc(B(O)O)cc3)ncnc12` [compound 38, 4-([[7-(methoxycarbonyl)thieno[3,2-d]pyrimidin-4-yl]-amino]methyl)-phenylboronic acid], less than 100 nM. To `NC(=O)c1c[nH]c2c(NCc3ccc(B(O)O)cc3)ncnc12` [compound 16, 4-[([7-carbamoyl-5H-pyrrolo[3,2-d]pyrimidin-4-yl]amino)-methyl]phenylboronic acid] belongs less than 1000 nM.

In the case of `O=CNc1csc2c(NCc3ccc(B(O)O)cc3)ncnc12` [compound 25, 4-[([7-formamidothieno[3,2-d]pyrimidin-4-yl]amino)-methyl]phenylboronic acid], the Ki is less than 100 nM. In the case of `OB(O)c1ccc(CNc2ncnc3cn[nH]c23)cc1` [compound 9, 4-([1H-pyrazolo[4,3-d]pyrimidin-7-ylamino]methyl)-phenylboronic acid] it was less than 100 nM; in that of `O=C(NCCO)c1c[nH]c2c(NCc3ccc(B(O)O)cc3)ncnc12` [compound 13, 4-[([7-[(2-hydroxyethyl)carbamoyl]-5H-pyrrolo[3,2-d]-pyrimidin-4-yl]amino)methyl]phenylboronic acid], less than 10000 nM. To `O=CNc1csc2c(C#Cc3ccc(B(O)O)cc3)ncnc12` [compound 36, 4-(2-[7-formamidothieno[3,2-d]pyrimidin-4-yl]ethynyl)-phenylboronic acid] belongs less than 1000 nM; to `CC(=O)Nc1cn(C)c2c(NCc3ccc(B(O)O)cc3)ncnc12` [Cpd. 2, 4-[([7-acetamido-5-methylpyrrolo[3,2-d]pyrimidin-4-yl]-amino)methyl]phenylboronic acid], less than 1000 nM; to `Cn1ncc2nc(-c3ccccn3)nc(NCc3ccc(B(O)O)cc3)c21` [compound 30, 4-([[1-methyl-5-(pyridin-2-yl)pyrazolo[4,3-d]pyrimidin-7-yl]amino]-methyl)phenylboronic acid], less than 100 nM.

`OB(O)c1ccc(CNc2ncnc3cc[nH]c23)cc1` [Cpd. 4, 4-([5H-pyrrolo[3,2-d]pyrimidin-4-ylamino]methyl)phenyl-boronic acid]: the Ki is less than 10000 nM. With `CCNC(=O)c1c[nH]c2c(NCc3ccc(B(O)O)cc3)ncnc12` [compound 10, 4-([[7-(ethylcarbamoyl)-5H-pyrrolo[3,2-d]pyrimidin-4-yl]-amino]methyl)phenylboronic acid; formic acid], the Ki is less than 100 nM. As for `CNC(=O)c1csc2c(NCc3ccc(B(O)O)cc3)ncnc12` [compound 12, 4-([[7-(methylcarbamoyl)thieno[3,2-d]pyrimidin-4-yl]-amino]methyl)phenylboronic acid], the Ki is less than 100 nM. With `Cn1ncc2nc(-c3ccncc3)nc(NCc3ccc(B(O)O)cc3)c21` [compound 32, 4-([[1-methyl-5-(pyridin-4-yl)pyrazolo[4,3-d]pyrimidin-7-yl]amino]methyl)phenylboronic acid], the Ki is less than 100 nM. With `Cn1ncc2nc(-c3cnccn3)nc(NCc3ccc(B(O)O)cc3)c21` [compound 33, 4-([[1-methyl-5-(pyrazin-2-yl)pyrazolo[4,3-d]pyrimidin-7-yl]amino]methyl)-phenylboronic acid], the Ki is less than 100 nM. To `CNC(=O)c1n[nH]c2c(NCc3ccc(B(O)O)cc3)ncnc12` [Cpd. 22] belongs more than 10000 nM. To `N#Cc1c[nH]c2c(NCc3ccc(B(O)O)cc3)ncnc12` [compound 15, 4-[([7-cyano-5H-pyrrolo[3,2-d]pyrimidin-4-yl]amino)methyl]phenylboronic acid] belongs less than 100 nM. Turning to `CC(C)C(=O)Nc1csc2c(NCc3ccc(B(O)O)cc3)ncnc12` [compound 23, 4-([[7-(2-methylpropanamido)thieno[3,2-d]pyrimidin-4-yl]-amino]methyl)phenylboronic acid], the Ki is more than 10000 nM.

Turning to `Cn1ncc2ncnc(NCc3ccc(B(O)O)cc3)c21` [compound 18, 4-[([1-methylpyrazolo[4,3-d]pyrimidin-7-yl]amino)methyl]-phenylboronic acid], the Ki was less than 100 nM. In the case of `Cn1ncc2nc(-c3cccnc3)nc(NCc3ccc(B(O)O)cc3)c21` [compound 31, 4-([[1-methyl-5-(pyridin-3-yl)pyrazolo[4,3-d]pyrimidin-7-yl]amino]methyl)-phenylboronic acid] it was less than 1000 nM; in that of `Cn1ccc2ncnc(NCc3ccc(B(O)O)cc3)c21` [compound 1, 4-[([5-methylpyrrolo[3,2-d]pyrimidin-4-yl]amino)-methyl]phenylboronic acid; formic acid], less than 100 nM; in that of `CN(C)C(=O)c1c[nH]c2c(NCc3ccc(B(O)O)cc3)ncnc12` [compound 11, 4-([[7-(dimethylcarbamoyl)-5H-pyrrolo[3,2-d]pyrimidin-4-yl]-amino]methyl)phenylboronic acid], less than 1000 nM. To `CNC(=O)c1c[nH]c2c(NCc3ccc(B(O)O)cc3)ncnc12` [compound 17, 4-([[7-(methylcarbamoyl)-5H-pyrrolo[3,2-d]pyrimidin-4-yl]amino]methyl)phenylboronic acid; formic acid] belongs less than 100 nM; to `NC(=O)c1csc2c(NCc3ccc(B(O)O)cc3)ncnc12` [compound 39, 4-[([7-carbamoylthieno[3,2-d]pyrimidin-4-yl]amino)-methyl]phenylboronic acid], less than 100 nM; to `CC(C)c1nc(NCc2ccc(B(O)O)cc2)c2[nH]ncc2n1` [compound 27, 4-[([5-isopropyl-1H-pyrazolo[4,3-d]pyrimidin-7-yl]-amino)methyl]phenylboronic acid formic acid salt], less than 1000 nM.

`O=C(Nc1csc2c(NCc3ccc(B(O)O)cc3)ncnc12)c1ccccc1` [compound 24, 4-[([7-benzamidothieno[3,2-d]pyrimidin-4-yl]amino)-methyl]phenylboronic acid]: the Ki is more than 10000 nM.

Regarding `CC(C)NC(=O)c1c[nH]c2c(NCc3ccc(B(O)O)cc3)ncnc12` [compound 14, 4-([[7-(isopropylcarbamoyl)-5H-pyrrolo[3,2-d]pyrimidin-4-yl]amino]methyl)phenylboronic acid], the Ki is less than 1000 nM.

For `CC(C)c1nc(NCc2ccc(B(O)O)cc2)c2c(cnn2C)n1` [compound 6, 4-[([5-isopropyl-1-methylpyrazolo[4,3-d]pyrimidin-7-yl]-amino)methyl]phenylboronic acid], the Ki is less than 100 nM. On to `OB(O)c1ccc(CNc2ccnc3cn[nH]c23)cc1` [compound 37, 4-([1H-pyrazolo[4,3-b]pyridin-7-ylamino]methyl)phenyl-boronic acid], for which the Ki was less than 100 nM. On to `Cn1ncc2nc(/C=C/c3cccnc3)nc(NCc3ccc(B(O)O)cc3)c21` [compound 35, 4-[([1-methyl-5-[(E)-2-(pyridin-3-yl)ethenyl]pyrazolo[4,3-d]pyrimidin-7-yl]amino)methyl]phenylboronic acid], for which the Ki is less than 100 nM.
